Patent US10294488B2, “Herbicide-metabolizing cytochrome P450 monooxygenases” (BASF SE, priority 2012, dated 2019)

Key:
AmCYP04 (Seq ID 27) = assay: Herbicide degradation in transgenic yeast cells expressing cytochrome P450 AmCYP04; type: in vitro ADME, Alopecurus myosuroides; conditions: transgenic yeast cells (S. cerevisiae BJ5459) expressing AmCYP04, Seq ID 27, recovery of herbicide in reference to control, UPLC-MS/MS
From the text: (§1) The cDNA of CYP450 monooxygenase genes were synthesized with an optimized codon usage for yeast, cloned via uniqueBamHI-SalI restriction sites in the low copy pESC-ura expression vector (Agilent Technologies). Constructs were transformed into S. cerevisiae wild type strain BJ5459 (MATa ura3-5 trp lys2-801 leu2Δ1 his3Δ200 pep4Δ::HIS3 prb1Δ1.6R can1 GAL cir^+; ATCC 208284) using a Yeast Maker Transformation System from Clontech and verified by colony PCR. Positive clones were selected on minimal synthetic-defined media (SD) supplemented with appropriate dropout solution. The strain had no obvious phenotypes. Cells were induced in SG-Ura medium (same composition as SD but with galactose instead of glucose) for 24 h (Pompon et al., Methods in Enzymology 272:51-64 (1996); Urban et al., Eur. J. Biochem. 222:[…] (1994)). Optimal heterologous protein expression was assayed using Western Blot analysis.
(§2) 96 deep well growth plates (STARLAB GmbH) charged with 700 μL SDA medium are inoculated with the respective yeast strains from cryostock and incubated at 30° C., 400 rpm. After 48 h, an aliquot is transferred into a new plate with fresh SDA medium 400 rpm. After 4 h the cultures are spun down, the supernatant discarded and the pellets resuspended in 700 μL pre-warmed SGA media to induce protein expression at 30° C. and 400 rpm. After an incubation time of 24 h, 7 μL herbicide solution (500 μM DMSO stock solution) or solvent control is added to the yeast culture incubated for additional 24 h. The herbicide conversion is stopped by adding 700 μL acetonitrile followed by ultrasonification. The homogenate is prepared for UPLC-MS/MS analysis. The degradation rate was calculated by the determination of the recovery of the herbicide in reference to the control.

[1] = tested on: transgenic plants expressing Am_CYP03 (SEQ ID 4); assay: Greenhouse herbicide tolerance of transgenic plants expressing Am_CYP03 (FIG. 1); type: in vivo, Arabidopsis thaliana; conditions: plants expressing Am_CYP03 (SEQ ID 4) vs wildtype, different application rates (g/ha)
Experimental: (§3) Transgenic Arabidopsis thaliana plants were assayed for improved tolerance to saflufenacil, 1,5-dimethyl-6-thioxo-3-(2,2,7-trifluoro-3-oxo-4-(prop-2-ynyl)-3,4-dihydro-2H-benzo[b][1,4]oxazin-6-yl)-1,3,5-triazinane-2,4-dione (CAS 1258836-72-4), chlorotoluron, pendimethalin, flumioxazin, butafenacil, acifluorfen, lactofen, bifenox, diuron, sulfentrazon, tepraloxydim, coumarone-derivative herbicides, azine-derivative herbicides in 48-well plates. Therefore, T2 seeds are surface sterilized by stirring for 5 min in ethanol+water (70+30 by volume), rinsing one time with ethanol+water (70+30 by volume) and two times with sterile, deionized water. The seeds are resuspended in 0.1% agar dissolved in water (w/v) Four to five seeds per well are plated on solid nutrient medium consisting of half-strength murashige skoog nutrient solution, pH 5.8 (Murashige and Skoog (1962) Physiologia Plantarum 15: 473-497). Compounds are dissolved in dimethylsulfoxid (DMSO) and added to the medium prior solidification (final DMSO concentration 0.1%). Multi well plates are incubated in a growth chamber at 22° C., 75% relative humidity and 110 μmol Phot*m^2*s^−1 with 14:10 h light: dark photoperiod. Growth inhibition is evaluated seven to ten days after seeding in comparison to wild type plants. Additionally, transgenic T1 Arabidopsis plants were tested for improved tolerance to herbicides in greenhouse studies with the following herbicides: saflufenacil, 1,5-dimethyl-6-thioxo-3-(2,2,7-trifluoro-3-oxo-4-(prop-2-ynyl)-3,4-dihydro-2H-benzo[b][1,4]oxazin-6-yl)-1,3,5-triazinane-2,4-dione (CAS 1258836-72-4), chlorotoluron, pendimethalin, flumioxazin, butafenacil, acifluorfen, lactofen, bifenox, diuron, sulfentrazone, tepraloxydim, coumarone-derivative herbicides, azine-derivative herbicides.

AmCYP03_1 (Seq ID 4) = assay: Herbicide degradation in transgenic yeast cells expressing cytochrome P450 AmCYP03_1; type: in vitro ADME, Alopecurus myosuroides; conditions: transgenic yeast cells (S. cerevisiae BJ5459) expressing AmCYP03_1, Seq ID 4, recovery of herbicide in reference to control, UPLC-MS/MS
From the text: as §1, §2

AmCYP01 (Seq ID 2) = assay: Herbicide degradation in transgenic yeast cells expressing cytochrome P450 AmCYP01; type: in vitro ADME, Alopecurus myosuroides; conditions: transgenic yeast cells (S. cerevisiae BJ5459) expressing AmCYP01, Seq ID 2, recovery of herbicide in reference to control, UPLC-MS/MS
From the text: as §1, §2

AmCYP03b (Seq ID 6) = assay: Herbicide degradation in transgenic yeast cells expressing cytochrome P450 AmCYP03b; type: in vitro ADME, Alopecurus myosuroides; conditions: transgenic yeast cells (S. cerevisiae BJ5459) expressing AmCYP03b, recovery of herbicide in reference to control, UPLC-MS/MS
From the text: as §1, §2

AmCYP12_1 (Seq ID 45) = assay: Herbicide degradation in transgenic yeast cells expressing cytochrome P450 AmCYP12_1; type: in vitro ADME, Alopecurus myosuroides; conditions: transgenic yeast cells (S. cerevisiae BJ5459) expressing AmCYP12_1, Seq ID 45, recovery of herbicide in reference to control, UPLC-MS/MS
From the text: as §1, §2

[2] = tested on: transgenic plants expressing Am_CYP04 (SEQ ID 27); assay: Greenhouse herbicide tolerance of transgenic plants expressing Am_CYP04 (FIG. 2); type: in vivo, Arabidopsis thaliana; conditions: plants expressing Am_CYP04 (SEQ ID 27) vs wildtype, different application rates (g/ha)
Experimental: as §3

| SMILES | Degradation rate of listed herbicidal compounds within 24 h (AmCYP04 (Seq ID 27)) | Phenotype (injury) of transgenic plants compared to non-transgenic plants [1] | Degradation rate of listed herbicidal compounds within 24 h (AmCYP03_1 (Seq ID 4)) | Degradation rate of listed herbicidal compounds within 24 h (AmCYP01 (Seq ID 2)) | Degradation rate of listed herbicidal compounds within 24 h (AmCYP03b (Seq ID 6)) | Degradation rate of listed herbicidal compounds within 24 h (AmCYP12_1 (Seq ID 45)) | Phenotype (injury) of transgenic plants compared to non-transgenic plants [2] |
| --- | --- | --- | --- | --- | --- | --- | --- |
| C#CCN1C(=O)C(F)(F)Oc2cc(F)c(-n3c(=O)n(C)c(=S)n(C)c3=O)cc21 [1,5-dimethyl-6-thioxo-3-(2,2,7-trifluoro-3-oxo-4-(prop-2-ynyl)-3,4-dihydro-2H-benzo[b][1,4]oxazin-6-yl)-1,3,5-triazinane-2,4-dione, reference compound] | 24 | much less injured | 23 | 17 | 21 | 20 | much less injured |
| Cc1ccc(NC(=O)N(C)C)cc1Cl [Chlorotoluron, reference compound] | 26 | much less injured | 32 | 18 | 29 | 22 | much less injured |
| CC(C)N(C)S(=O)(=O)NC(=O)c1cc(-n2c(=O)cc(C(F)(F)F)n(C)c2=O)c(F)cc1Cl [saflufenacil, reference compound] | 18 | much less injured | 10 | 20 | 9 | 20 | much less injured |
